Test systems include COLO 205 colon; HCC-2998 colon; HCT-15 colon; MOLT-4 leukemia; NCI-H23 lung; OVCAR-5 ovarian; PC-3 prostate; SK-MEL-5 melanoma; SNB-75 CNS; T-47D breast.
Common to all, as to test: NCI anticancer screen, dose series, 48 h

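In this assay, cells in 96-well plates receive the compound at five concentrations for 48 hours. Endpoints are linearly interpolated between the surrounding concentrations. Here, GI50 denotes the concentration required for 50% inhibition of growth. TGI: total growth inhibition.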

Take `COC(=O)c1c2c(c(C)[n+]([O-])c1C)C(=O)C=C(NCc1ccc(Cl)cc1)C2=O`: the GI50 with COLO 205 colon was 0.278 µM; in the assay on HCC-2998 colon, 0.354 µM; in the assay on HCT-15 colon it was 0.183 µM; in the assay on MOLT-4 leukemia it was 0.514 µM; in the assay with NCI-H23 lung, 0.572 µM; in the assay with OVCAR-5 ovarian, 1.29 µM. The GI50 is 0.289 µM with PC-3 prostate, 0.176 µM in the assay with SK-MEL-5 melanoma, 1.65 µM in the assay on SNB-75 CNS and 0.151 µM in the assay with T-47D breast. Moreover, the TGI came out at 0.963 µM in the assay with COLO 205 colon; 1.55 µM in the assay on HCC-2998 colon; 1.74 µM with HCT-15 colon; 2.92 µM in the assay with MOLT-4 leukemia; 2.9 µM in the assay with NCI-H23 lung; 2.78 µM with OVCAR-5 ovarian. The TGI in the assay on PC-3 prostate came out at 3.17 µM; in the assay with SK-MEL-5 melanoma, 0.337 µM; in the assay with SNB-75 CNS, 3.03 µM; with T-47D breast, 1.7 µM.
In the case of `CC1CCC2(OC1)OC1CC3C4CC=C5CC(OC6OC(CO)C(OC7OC(C)C(OC8OC(C)C(O)C(O)C8O)C(O)C7O)C(O)C6OC6OC(C)C(O)C(O)C6O)CCC5(C)C4CCC3(C)C1C2C` (stereo not given), the TGI in the assay with COLO 205 colon turned out to be 3.06 µM; with HCC-2998 colon it was 1.37 µM; with HCT-15 colon, 2.92 µM; with MOLT-4 leukemia it was 0.958 µM; with NCI-H23 lung, 3.13 µM; in the assay with OVCAR-5 ovarian, 2.39 µM. Further, the TGI in the assay on PC-3 prostate turned out to be 2.08 µM; in the assay with SK-MEL-5 melanoma, 3.06 µM; in the assay with SNB-75 CNS, 1.64 µM; with T-47D breast, 2.89 µM.
As to `O=C(Nc1ccccc1Cl)c1cnc2ccc(C3CCNCC3)cn12`, the GI50 was 2.85 µM in the assay with COLO 205 colon; above 100 µM in the assay on HCC-2998 colon; 11 µM in the assay on HCT-15 colon; 55.9 µM in the assay with MOLT-4 leukemia; 74.5 µM in the assay with NCI-H23 lung; 1.9 µM in the assay on OVCAR-5 ovarian. Also, the GI50 in the assay on PC-3 prostate is 14.3 µM; in the assay with SK-MEL-5 melanoma, 13 µM; in the assay with SNB-75 CNS, 0.15 µM; in the assay with T-47D breast, 5.53 µM. Besides, the TGI with COLO 205 colon was 25 µM; with HCC-2998 colon, above 100 µM; in the assay on HCT-15 colon, above 100 µM; in the assay on MOLT-4 leukemia, above 100 µM; with NCI-H23 lung, above 100 µM; with OVCAR-5 ovarian it was above 100 µM. In addition, the TGI in the assay with PC-3 prostate is above 100 µM; with SK-MEL-5 melanoma, 26.6 µM; with SNB-75 CNS, 5.02 µM; in the assay on T-47D breast, above 100 µM.
As to `COc1ccc(C2=NNC(c3ccc(-c4ccc(OC)cc4[N+](=O)[O-])o3)C2)cc1` (stereo not given), the GI50 was above 100 µM with COLO 205 colon; 36.9 µM in the assay with HCC-2998 colon; 31 µM in the assay with HCT-15 colon; 31 µM in the assay on MOLT-4 leukemia; 33 µM with NCI-H23 lung; above 100 µM in the assay on OVCAR-5 ovarian. In addition, the GI50 in the assay with PC-3 prostate was 83.3 µM; in the assay with SK-MEL-5 melanoma, 72.7 µM; with SNB-75 CNS, 21.2 µM; with T-47D breast, 18.5 µM. For the same molecule, the TGI in the assay with COLO 205 colon, in the assay with HCC-2998 colon, with HCT-15 colon, in the assay with MOLT-4 leukemia, in the assay on NCI-H23 lung and in the assay on OVCAR-5 ovarian was above 100 µM each time. In addition, the TGI in the assay on PC-3 prostate is above 100 µM; with SK-MEL-5 melanoma it was above 100 µM; in the assay on SNB-75 CNS, 84.3 µM; with T-47D breast it was 88.1 µM.
With `O=C(O)C(/C=C/c1ccco1)=N\Nc1nc(-c2ccc(Cl)cc2)cs1`, the GI50 in the assay with COLO 205 colon is 12.5 µM; with HCC-2998 colon, 14.2 µM; in the assay with HCT-15 colon, 9.27 µM; in the assay with MOLT-4 leukemia, 8.62 µM; in the assay with NCI-H23 lung, 15.2 µM; in the assay with OVCAR-5 ovarian it was 46.4 µM. Moreover, the GI50 was 17.3 µM in the assay on PC-3 prostate, 14.8 µM in the assay on SK-MEL-5 melanoma, 23.1 µM with SNB-75 CNS and 17.3 µM in the assay with T-47D breast. Further, the TGI in the assay with COLO 205 colon is 45.8 µM; with HCC-2998 colon, above 50 µM; with HCT-15 colon it was above 50 µM; in the assay with MOLT-4 leukemia it was above 50 µM; in the assay with NCI-H23 lung it was above 50 µM; with OVCAR-5 ovarian, above 50 µM. In addition, the TGI in the assay on PC-3 prostate, in the assay on SK-MEL-5 melanoma, with SNB-75 CNS and in the assay on T-47D breast was above 50 µM in each case.
On to `O=C(O)CC(Cc1ccc2c(c1)OCO2)C(=O)O` (stereo not given), for which the TGI in the assay on COLO 205 colon, in the assay on HCC-2998 colon, with HCT-15 colon, with MOLT-4 leukemia, in the assay with NCI-H23 lung and in the assay with OVCAR-5 ovarian was above 100 µM each time. The TGI with PC-3 prostate, with SK-MEL-5 melanoma, in the assay with SNB-75 CNS and in the assay on T-47D breast was above 100 µM in each case.
Take `Clc1nc(Cl)c2ncn(C/C=C\Cn3cnc4c(Cl)nc(Cl)nc43)c2n1`: the GI50 in the assay on COLO 205 colon was 2.09 µM; in the assay with HCC-2998 colon, 1.67 µM; in the assay with HCT-15 colon it was 1.64 µM; in the assay with MOLT-4 leukemia it was 2.05 µM; in the assay with NCI-H23 lung it was 2.09 µM; with OVCAR-5 ovarian it was 5.52 µM. For the same molecule, the GI50 in the assay on PC-3 prostate is 2.05 µM; with SK-MEL-5 melanoma it was 2.92 µM; with SNB-75 CNS, 2.73 µM; with T-47D breast, 0.951 µM. The TGI in the assay on COLO 205 colon is 4.82 µM; with HCC-2998 colon, 3.45 µM; with HCT-15 colon, 3.36 µM; in the assay with MOLT-4 leukemia, 4.11 µM; with NCI-H23 lung it was 5.11 µM; in the assay with OVCAR-5 ovarian it was 18.4 µM. In addition, the TGI in the assay with PC-3 prostate was determined as 4.54 µM; in the assay on SK-MEL-5 melanoma, 10.5 µM; in the assay on SNB-75 CNS, 7.91 µM; in the assay on T-47D breast, 2.79 µM.
As for `Nc1nc(-n2cccn2)nc(-n2cccn2)c1Br`, the GI50 in the assay on COLO 205 colon, with HCC-2998 colon, in the assay with HCT-15 colon, with MOLT-4 leukemia, in the assay with NCI-H23 lung and in the assay with OVCAR-5 ovarian was above 100 µM in each case. Also, the GI50 in the assay on PC-3 prostate is above 100 µM; in the assay with SK-MEL-5 melanoma, above 100 µM; with SNB-75 CNS, 24.6 µM; in the assay with T-47D breast, above 100 µM. The TGI in the assay on COLO 205 colon, with HCC-2998 colon, in the assay with HCT-15 colon, in the assay with MOLT-4 leukemia, in the assay with NCI-H23 lung and with OVCAR-5 ovarian was above 100 µM each time. The TGI in the assay on PC-3 prostate, in the assay on SK-MEL-5 melanoma, with SNB-75 CNS and in the assay on T-47D breast was above 100 µM each time.

The values are drawn from PubChem BioAssay (NCI).
